Experimental data taken from patent publication US12715851B2, “4′-substituted analogues of fisetin and their use in the treatment of cancer” (Stellenbosch University, priority 2020, dated 2026).
“Also recorded” adds a separate entry of the source.

What was measured:
[1] = tested on: A549 lung cancer cell line; experiment: MTT cell proliferation assay, cytotoxicity after 48 h treatment; type: cell-based, human
Protocol: These 4′-substituted Fisetin analogues were initially screened for cytotoxicity against the A549 lung cancer cell line following a 48 h treatment period. Cytotoxicity IC50's were quantified using the MTT cell proliferation assay. The compounds were not found to interfere with the assay by causing an increase in background absorbance, no correlation was found between the lipophilicity and cytotoxicity at this position, and the substituent size was also not found to be important.

[2] = tested on: glutathione S-transferase (GST); experiment: Hepatotoxicity: specific activity of glutathione S-transferase; type: in vivo, swiss albino mice; settings: liver of treated mice
Protocol: (§1) Hepatotoxicity is considered to be one of the major challenges for drug development schemes. The liver is the primary organ for the metabolism or biotransformation of a given drug. To assess the hepatotoxicity of these compounds, the effects of Fisetin and analogue 3c on various hepatic enzymes was assessed.
(§2) A lipid peroxidation assay was performed on microsomal liver fraction and determined in terms of TBARS formation. […] The modulatory effects of Fisetin and analogue 3c were determined on the specific activities of cytochrome b5 reductase (Cytb5R) and cytochrome P450 reductase (CytP450R), phase I enzyme of xenobiotic metabolism. Fisetin and analogue 3c caused reduction in the specific activity of cytochrome b5 reductase. Fisetin decreased Cytb5R specific activity by 66% whereas analogue 3c (50 mg/kg) caused a 36% reduction in specific activity (FIG. 7F). An increase in specific activity of CytP450R by Fisetin and analogue 3c was observed. Fisetin and analogue 3c (50 mg/kg) increased the specific activity by 15% and 13%, respectively (FIG. 7G). Next, the specific activities of phase II enzymes, glutathione S-transferase (GST) and reduced glutathione (GSH) were measured. […] Fisetin and analogue 3c (50 mg/kg) caused a decrease in specific activity of GSH by 34% and 7%, respectively (FIG. 7I). […] These analogues are therefore likely to be effective and safe phytochemicals.

[3] = tested on: cytochrome b5 reductase (Cytb5R); experiment: Hepatotoxicity: specific activity of cytochrome b5 reductase; type: in vivo, swiss albino mice; settings: 50 mg/kg orally, two weeks
Protocol: as §1, §2

[4] = tested on: A549; experiment: Apoptosis assay; type: cell-based, human; settings: 48 h, control cells 4.7%
Text: (§3) In A549, analogue 3a induced 8.2 and 11.2% apoptosis, analogue 3c induced 13.4 and 17.2% apoptosis, and analogue 3e induced 10.6 to 19.5% apoptosis compared to 4.7% in control cells (FIG. 6A).

[5] = tested on: H1299 cancer cells; experiment: Apoptosis assay; type: cell-based, human; settings: 48 h
Text: [Worded in the source for another cell line; used here, by the source, with some conditions changed.] as §3

[6] = tested on: reduced glutathione (GSH); experiment: Hepatotoxicity: reduced glutathione; type: in vivo, swiss albino mice; settings: 50 mg/kg orally, two weeks
Protocol: as §1, §2

[7] = tested on: A549; experiment: Cell cycle distribution, propidium iodide flow cytometry; type: cell-based, human; settings: 48 h
Protocol: (§4) To examine the effect of Fisetin analogues on cell cycle regulation, cells were treated with different concentrations of Fisetin analogues (5, 10 & 20 μM) for 48 h, then stained with propidium iodide and subjected to flow cytometry. All three of the tested Fisetin analogues induced G2/M phase cell cycle arrest in A549 (FIGS. 5A-5C) and H1299 human lung cancer cells (FIGS. 5D-5F).

[8] = tested on: SOD; experiment: Hepatotoxicity: specific activity of SOD; type: in vivo, swiss albino mice; settings: liver of treated mice
Protocol: as §1, §2

[9] = tested on: B(a)P-induced lung carcinogenesis; experiment: B(a)P-induced lung carcinogenesis, Initiation and Promotion Protocols; type: in vivo, Swiss albino mice
Text: To assess whether Fisetin and its 4-bromo-Fisetin analogue (Fisetin analogue 3c) have anticarcinogenesis activity and if any toxicity in terms of water and food consumption, and body weight, Benzo[a]pyrene [B(a)P] induced lung carcinogenesis in Swiss albino mice were employed in the study. Along with the antitumor activity of the agents, the body weight, food and water intake in different treatment groups were monitored on regular intervals and analysed.
There were six different treatment groups in the study including, (1) control, (2) B(a)P, (3) Fisetin+B(a)P, (4) Fisetin analogue 3c+B(a)P, (5) B(a)P+Fisetin and (6) B(a)P+Fisetin analogue 3c.
Groups 3 and 4 represent the Initiation Protocol (agents treatment started 1 week before carcinogen treatment and continued 1 week after the last dose of the carcinogen). Groups 5 and 6 represent the Promotion Protocol (agents treatment started after 3 weeks of the carcinogen treatment). The B(a)P was given orally twice a week for 4 weeks at 50 mg/kg body weight dose, whereas Fisetin and Fisetin analogue (3c) were administered orally at 25 mg/kg body weight thrice weekly (see FIG. 9).

[10] = tested on: cytochrome P450 reductase (CytP450R); experiment: Hepatotoxicity: specific activity of cytochrome P450 reductase; type: in vivo, swiss albino mice; settings: 50 mg/kg orally, two weeks
Protocol: as §1, §2

[11] = tested on: H1299 cells; experiment: Western blot of signalling, cell cycle and apoptosis markers; type: cell-based, human
Text: Similarly, in H1299 cells analogue 3a induced a 11.7 to 14.9% cell death (FIG. 4D right) compared to 3.8% in control cells. Analogue 3c (FIG. 4E right) and analogue 3e (FIG. 4F right) induced cell death of 8.2 to 15.1% and 8.8 to 16.6% respectively. For western blot experiments, two concentrations were used, i.e. the IC50 concentration and the next higher concentration utilized for cell proliferation for each cell line.
In H1299 cells (FIG. 4H), the higher concentrations of all three Fisetin analogues decreased the expression of pErk1/2. […]
The decreased expression of these proteins explains the decreased cell proliferation in both A549 and H1299 cells. […] Consistent with A549 data, all three the Fisetin analogues decreased the expression of anti-apoptotic protein Bcl-2 at both the concentrations. In H1299 cells, all the analogues increased cleaved Caspase-3 compared to control untreated cells. Thus, modulation of apoptosis regulatory proteins has caused apoptosis in both A549 and H1299 cells by the tested Fisetin analogues.

[12] = tested on: H1299 human lung cancer cells; experiment: Cell cycle distribution, propidium iodide flow cytometry; type: cell-based; settings: H1299, 48 h
Protocol: as §4

O=c1c(O)c(-c2ccc(Br)cc2)oc2cc(O)ccc12 [analogue 3c, 4′-Bromo-3,7-dihydroxyflavone]
cytotoxicity, in words ([1]; A549, MTT, 48 h): particularly active | activity against lung cancer cell lines compared with the parent Fisetin ([1]; A549 and/or H1299): substantially more active | specific activities of GST compared to the control group [2]: did not cause significant change | reduction in specific activity of cytochrome b5 reductase [3]: 36% | apoptosis ([4]; IC50 concentration): 13.4% | apoptosis ([4]; higher concentration 20 μM): 17.2% | apoptosis ([5]; IC50 concentration): 13.4% | apoptosis ([5]; higher concentration 10 μM): 17.2% | decrease in specific activity of GSH [6]: 7% | G2/M phase arrest ([7]; 5 μM): induced cell cycle arrest | G2/M phase arrest ([7]; 10 & 20 μM): induced G2/M phase arrest in both the cell lines significantly | specific activity of SOD [8]: moderately induced | systemic toxicity during long-term application ([9]; 25 mg/kg orally thrice weekly): did not show any systemic toxicity | tumorigenic features in lung histology (nucleus size, cytoplasmic content, alveoli) ([9]; 25 mg/kg orally thrice weekly): reversal of the tumorigenic features | tumor incidence, histopathology of H&E stained serial sections ([9]; compared to the carcinogen treated group): less | decrease of area or size of lesions ([9]; initiation group): approximately 50% | efficacy in inhibiting B(a)P induced lung carcinogenesis, in words ([9]; mouse model): efficacious; also recorded: more effective in reducing the number as well as the size of the lung tumor lesions as compared to the parent compound Fisetin | decrease of area or size of lesions ([9]; promotion group): more than 50% | reduction of total number of lesions ([9]; tumor initiation group): approximately 50% | surface tumor lesion incidence, gross observation of lung ([9]; tumor initiation phase, B(a)P-only group 100% incidence): only one mouse showed surface tumor lesion out of five | tumor lesions per mouse and total number of lesions per group, in words ([9]; versus B(a)P group): strongly reduced | increase in specific activity of CytP450R [10]: 13% | Phospho-Cdc-2 expression ([11]; IC50 concentration and 10 μM): higher concentration of analogue 3c and both concentrations of analogue 3e decreased the expression of phospho-Cdc-2 | Total Cdc-2 ([11]; IC50 concentration and 10 μM): marginally affected by higher concentration | expression of Bax ([11]; IC50 concentration and 10 μM): increased the expression of pro-apoptotic protein Bax | expression of Cyclin B1 ([11]; IC50 concentration and 10 μM): decreased in all treatments, except for the lower concentration of analogue 3c | expression of phospho Akt ([11]; IC50 concentration and 10 μM): completely undetected | expression of phospho-EGFR ([11]; IC50 concentration and 10 μM): decreased the expression of both phospho and total EGFR | expression of total Akt ([11]; IC50 concentration and 10 μM): completely undetected | expression of total EGFR ([11]; IC50 concentration and 10 μM): decreased the expression of both phospho and total EGFR | expression of total Erk1/2 ([11]; IC50 concentration and 10 μM): decreased the expression of total Erk1/2 significantly | expression of total Stat-3 ([11]; higher concentration (10 μM)): decreased the expression of total Stat-3 at higher concentrations | G2/M phase arrest ([12]; 5 μM): induced cell cycle arrest | G2/M phase arrest ([12]; 10 & 20 μM): induced G2/M phase arrest in both the cell lines significantly
